The source made the active and inactive calls. The rule behind the calls is not given here.
Experiments:
Rattus norvegicus [1] = assay: In vivo inhibition of galactitol accumulation in diaphragm of rat at 10 mg/kg/day; assay type: functional
Rattus norvegicus [2] = assay: In vivo inhibition of galactitol accumulation in diaphragm of rat at 5 mg/kg/day; assay type: functional
Rattus norvegicus [3] = assay: In vivo inhibition of galactitol accumulation in sciatic nerves of rat at 5 mg/kg/day; Not significant; assay type: functional, organism-based; conditions: Sciatic nerve
[4] = target: Aldo-keto reductase family 1 member B1 (Bos taurus) (UniProt P16116); assay: In vitro % decrease of aldose reductase measured in isolated partially purified bovine lens preparations at 10e-7 M concentration
Rattus norvegicus [5] = assay: In vivo inhibition of galactitol accumulation in sciatic nerves of rat at 10 mg/kg/day; assay type: functional; conditions: Sciatic nerve
Rattus norvegicus [6] = assay: In vivo inhibition of galactitol accumulation in sciatic nerves of rat at 50 mg/kg/day; assay type: functional; conditions: Sciatic nerve
Rattus norvegicus [7] = species on record: Rattus norvegicus; assay: (§1) In vitro inhibition of sorbitol accumulation was measured in rat sciatic nerves incubated in the presence of 50 mM glucose at 10e-6 M concentration; assay type: functional, Sciatic nerve
Rattus norvegicus [8] = assay: In vivo inhibition of galactitol accumulation in sciatic nerves of rat at 24 mg/kg/day; assay type: functional; conditions: Sciatic nerve
Rattus norvegicus [9] = assay: In vivo inhibition of galactitol accumulation in diaphragm of rat at 50 mg/kg; assay type: functional
Rattus norvegicus [10] = species on record: Rattus norvegicus; assay: (§2) In vitro inhibition of sorbitol accumulation was measured in rat sciatic nerves incubated in the presence of 50 mM glucose at 10e-5 M concentration; assay type: functional, Sciatic nerve
Rattus norvegicus [11] = assay: In vivo inhibition of galactitol accumulation in diaphragm of rat at 24 mg/kg/day; assay type: functional
Rattus norvegicus [12] = assay: In vivo inhibition of galactitol accumulation in sciatic nerves of rat at 22 mg/kg/day; assay type: functional; conditions: Sciatic nerve
Rattus norvegicus [13] = assay: In vivo inhibition of galactitol accumulation in sciatic nerves of rat at 11 mg/kg/day; assay type: functional; conditions: Sciatic nerve
Rattus norvegicus [14] = assay: In vivo inhibition of galactitol accumulation in sciatic nerves of rat at 27 mg/kg/day; assay type: functional; conditions: Sciatic nerve
Rattus norvegicus [15] = assay: In vivo inhibition of galactitol accumulation in diaphragm of rat at 22 mg/kg/day; assay type: functional
Rattus norvegicus [16] = assay: In vivo inhibition of galactitol accumulation in diaphragm of rat at 27 mg/kg/day; assay type: functional
Rattus norvegicus [17] = assay: In vivo inhibition of galactitol accumulation in diaphragm of rat at 11 mg/kg/day; assay type: functional
[18] = target: Aldo-keto reductase family 1 member B1 (Bos taurus) (UniProt P16116); assay: In vitro % decrease of aldose reductase was measured in isolated partially purified bovine lens preparations at 10e-7 M concentration; Not active
Rattus norvegicus [19] = assay: In vivo inhibition of galactitol accumulation in diaphragm of rat at 65 mg/kg/day; assay type: functional
Rattus norvegicus [20] = assay: In vivo inhibition of galactitol accumulation in sciatic nerves of rat at 65 mg/kg/day; Not significant; assay type: functional, organism-based; conditions: Sciatic nerve
Rattus norvegicus [21] = assay: In vivo inhibition of galactitol accumulation in diaphragm of rat at 105 mg/kg/day; assay type: functional
Rattus norvegicus [22] = assay: In vivo inhibition of galactitol accumulation in sciatic nerves of rat at 105 mg/kg/day; Not significant; assay type: functional, organism-based; conditions: Sciatic nerve
Rattus norvegicus [23] = assay: In vivo inhibition of galactitol accumulation in sciatic nerves of rat at 5 mg/kg/day; assay type: functional; conditions: Sciatic nerve
Rattus norvegicus [24] = assay: Effective dose of aldose reductase was evaluated by measuring galactitol accumulation in sciatic nerves of rat at 5 mg/kg/day; assay type: functional; conditions: Sciatic nerve
Rattus norvegicus [25] = species on record: Rattus norvegicus; assay: % inhibition of aldose reductase was measured in rat serbital sciatic nerves incubated in the presence of 50 mM glucose at 10e-6 M concentration; assay type: functional, Sciatic nerve
Rattus norvegicus [26] = species on record: Rattus norvegicus; assay: as §1; assay type: functional; conditions: Sciatic nerve
Rattus norvegicus [27] = species on record: Rattus norvegicus; assay: as §2; assay type: functional; conditions: Sciatic nerve
[28] = target: Aldo-keto reductase family 1 member B1 (Bos taurus, UniProt P16116); assay: In vitro Inhibition of aldose reductase was measured in isolated partially purified bovine lens preparations at 10e-7 M concentration
Rattus norvegicus [29] = assay: In vivo inhibition of galactitol accumulation in sciatic nerves of rat at 14 mg/kg/day; assay type: functional; conditions: Sciatic nerve
Rattus norvegicus [30] = assay: In vivo inhibition of galactitol accumulation in diaphragm of rat at 14 mg/kg/day; assay type: functional
Rattus norvegicus [31] = assay: % reduction of aldose reductase inhibition was evaluated by measuring galactitol accumulation in diaphragm of rat at 112 mg/kg/day; Not significant; assay type: functional, organism-based
Rattus norvegicus [32] = assay: In vivo inhibition of galactitol accumulation in sciatic nerves of rat at 112 mg/kg/day; Not significant; assay type: functional, organism-based; conditions: Sciatic nerve
Rattus norvegicus [33] = assay: In vivo inhibition of galactitol accumulation in sciatic nerves of rat at 19 mg/kg/day; assay type: functional; conditions: Sciatic nerve
Rattus norvegicus [34] = assay: In vivo inhibition of galactitol accumulation in diaphragm of rat at 19 mg/kg/day; assay type: functional
Rattus norvegicus [35] = assay: In vivo inhibition of galactitol accumulation in sciatic nerves of rat at 25 mg/kg/day; assay type: functional; conditions: Sciatic nerve
Rattus norvegicus [36] = assay: In vivo inhibition of galactitol accumulation in diaphragm of rat at 18 mg/kg/day; assay type: functional
Rattus norvegicus [37] = assay: In vivo inhibition of galactitol accumulation in sciatic nerves of rat at 18 mg/kg; assay type: functional; conditions: Sciatic nerve
Rattus norvegicus [38] = assay: In vivo inhibition of galactitol accumulation in diaphragm of rat at 25 mg/kg/day; assay type: functional
Rattus norvegicus [39] = species on record: Rattus norvegicus; assay: inhibition of aldose reductase activity was measured by measuring […] in the RBC of galactose fed rat.; assay type: functional
Rattus norvegicus [40] = species on record: Rattus norvegicus; assay: Inhibition of galactitol accumulation in sciatic nerves of rat incubated in presence of 50 mM glucose.; assay type: functional, organism-based; conditions: Sciatic nerve
Rattus norvegicus [41] = species on record: Rattus norvegicus; assay: inhibition of aldose reductase activity was measured by measuring […] in the sciatic nerves of galactose fed rat.; assay type: functional; conditions: Sciatic nerve
Rattus norvegicus [42] = species on record: Rattus norvegicus; assay: Inhibition of galactitol accumulation in rat RBC incubated in presence of 50 mM glucose; assay type: functional, organism-based
Rattus norvegicus [43] = species on record: Rattus norvegicus; assay: Inhibition of galactitol accumulation in rat lens incubated in presence of 50 mM glucose; assay type: functional, organism-based; conditions: Lens of camera-type eye
Rattus norvegicus [44] = assay: In vivo inhibition of galactitol accumulation in diaphragm of rat at 6 mg/kg/day; assay type: functional
Rattus norvegicus [45] = species on record: Rattus norvegicus; assay: inhibition of aldose reductase activity was measured by measuring sorbitor accumulation in the sciatic nerves of STZ diabetic rat.; assay type: functional; conditions: Sciatic nerve
Rattus norvegicus [46] = assay: In vivo inhibition of galactitol accumulation in sciatic nerves of rat at 6 mg/kg/day; assay type: functional; conditions: Sciatic nerve

O=C(O)Cc1nn(Cc2nc3cc(C(F)(F)F)ccc3s2)c(=O)c2ccccc12 [ZOPOLRESTAT]
inhibition in vivo at 10 mg/kg/day (Rattus norvegicus [1]): 80% | inhibition in vivo at 5 mg/kg/day (Rattus norvegicus [2]): 88% | inhibition (Rattus norvegicus [3]): inactive | inhibition [4]: 89% | inhibition in vivo at 10 mg/kg/day (Rattus norvegicus [5]): 70%

COc1ccc2c(C(=O)N(C)CC(=O)O)c(OCC(F)(F)F)ccc2c1C(F)(F)F
inhibition in vivo at 50 mg/kg/day (Rattus norvegicus [6]): 79% | Inhibition (Rattus norvegicus [7]): 31% | inhibition in vivo at 24 mg/kg/day (Rattus norvegicus [8]): 37% | inhibition in vivo at 50 mg/kg (Rattus norvegicus [9]): 82% | inhibition [4]: 67% | Inhibition (Rattus norvegicus [10]): 57% | inhibition in vivo at 24 mg/kg/day (Rattus norvegicus [11]): 65%

COC(=O)CN(C)C(=O)c1c(F)ccc2c(C(F)(F)F)c(OC)ccc12
inhibition in vivo at 22 mg/kg/day (Rattus norvegicus [12]): 80% | inhibition in vivo at 11 mg/kg/day (Rattus norvegicus [13]): 29% | inhibition in vivo at 27 mg/kg/day (Rattus norvegicus [14]): 48% | inhibition in vivo at 22 mg/kg/day (Rattus norvegicus [15]): 55% | inhibition in vivo at 27 mg/kg/day (Rattus norvegicus [16]): 48% | inhibition in vivo at 11 mg/kg/day (Rattus norvegicus [17]): 34% | inhibition [18]: inactive

COc1ccc2c(C(=O)N(C)CC(=O)O)c(OCc3ccccc3)ccc2c1C(F)(F)F
inhibition in vivo at 65 mg/kg/day (Rattus norvegicus [19]): 23% | inhibition (Rattus norvegicus [20]): inactive | inhibition [4]: 73%

COc1c(C)cc2c(C(=S)N(C)CC(=O)O)cccc2c1Br
inhibition in vivo at 10 mg/kg/day (Rattus norvegicus [1]): 87% | inhibition in vivo at 105 mg/kg/day (Rattus norvegicus [21]): 34% | inhibition (Rattus norvegicus [22]): inactive | inhibition [4]: 8% | inhibition in vivo at 10 mg/kg/day (Rattus norvegicus [5]): 54%

O=C(O)Cc1nn(Cc2ccc(Br)cc2F)c(=O)c2ccccc12 [PONALRESTAT]
inhibition in vivo at 5 mg/kg/day (Rattus norvegicus [2]): 63% | inhibition in vivo at 5 mg/kg/day (Rattus norvegicus [23]): 61% | ED50 (Rattus norvegicus [24]): 4 mg/kg | Inhibition (Rattus norvegicus [25]): 35% | IC50 (Rattus norvegicus [26]): 0.037 µM | IC50 (Rattus norvegicus [27]): 1.4 µM | IC50 [28]: 0.037 µM | Inhibition (Rattus norvegicus [10]): 100%

COc1ccc2c(C(=O)N(C)CC(N)=O)ccc(F)c2c1C(F)(F)F
inhibition in vivo at 27 mg/kg/day (Rattus norvegicus [14]): 56% | inhibition in vivo at 27 mg/kg/day (Rattus norvegicus [16]): 31% | inhibition in vivo at 14 mg/kg/day (Rattus norvegicus [29]): 72% | inhibition [18]: inactive | inhibition in vivo at 14 mg/kg/day (Rattus norvegicus [30]): 74%

COc1c(C)cc2c(C(=O)N(C)CC(=O)O)cccc2c1Br
inhibition (Rattus norvegicus [31]): inactive | inhibition (Rattus norvegicus [32]): inactive | inhibition in vivo at 19 mg/kg/day (Rattus norvegicus [33]): 77% | inhibition in vivo at 19 mg/kg/day (Rattus norvegicus [34]): 63% | inhibition [4]: 20%

COc1ccc2c(C(=S)N(C)CC(=O)O)cccc2c1Br
inhibition in vivo at 25 mg/kg/day (Rattus norvegicus [35]): 64% | inhibition in vivo at 18 mg/kg/day (Rattus norvegicus [36]): 88% | inhibition in vivo at 18 mg/kg (Rattus norvegicus [37]): 39% | inhibition in vivo at 25 mg/kg/day (Rattus norvegicus [38]): 90% | inhibition [4]: 72%

COc1ccc2c(C(=S)N(C)CC(=O)O)cccc2c1C(F)(F)F [TOLRESTAT]
ED50 (Rattus norvegicus [39]): < 2 mg/kg | IC50 (Rattus norvegicus [40]): 0.54 µM | ED50 (Rattus norvegicus [41]): 6.4 mg/kg | IC50 (Rattus norvegicus [42]): 0.015 µM | IC50 (Rattus norvegicus [43]): 1 µM | Inhibition (Rattus norvegicus [7]): 61% | inhibition in vivo at 6 mg/kg/day (Rattus norvegicus [44]): 80% | ED50 (Rattus norvegicus [45]): 4.8 mg/kg | inhibition in vivo at 6 mg/kg/day (Rattus norvegicus [46]): 53% | Inhibition (Rattus norvegicus [10]): 82%
